ChEMBL document CHEMBL1201862, “PubChem BioAssay data set” (2004)
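Protocol summary: plate cells (96-well), add compound at 5 concentrations, incubate 48 h, interpolate endpoints linearly. GI50 is the concentration that inhibits growth by half.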 Calls of active or inactive are those of the source. No stated cut-off is given here; in the data, active = GI50 up to about 1.1 µM and inactive = higher.

Legend:
Experiment in all cases: NCI anticancer screen, dose series, 48 h
Malme-3M = tested on: Malme-3M
HL-60 = tested on: HL-60
OVCAR-4 = tested on: OVCAR-4
SNB-75 = tested on: SNB-75
HOP-92 = tested on: HOP-92
CAKI-1 = tested on: CAKI-1
DU-145 = tested on: DU-145
OVCAR-5 = tested on: OVCAR-5
OVCAR-8 = tested on: OVCAR-8
Hs-578T = tested on: Hs-578T
MDA-MB-231 = tested on: MDA-MB-231
A498 = tested on: A498
SN12C = tested on: SN12C
HCT-15 = tested on: HCT-15
NCI-H522 = tested on: NCI-H522
SF-295 = tested on: SF-295
UACC-257 = tested on: UACC-257
SK-MEL-28 = tested on: SK-MEL-28
RPMI-8226 = tested on: RPMI-8226
HCC 2998 = tested on: HCC 2998

SMILES	GI50 (Malme-3M)	GI50 (HL-60)	GI50 (OVCAR-4)	GI50 (SNB-75)	GI50 (HOP-92)	GI50 (CAKI-1)	GI50 (DU-145)	GI50 (OVCAR-5)	GI50 (OVCAR-8)	GI50 (Hs-578T)	GI50 (MDA-MB-231)	GI50 (A498)	GI50 (SN12C)	GI50 (HCT-15) [µM]	GI50 (NCI-H522)	GI50 (SF-295)	GI50 (UACC-257)	GI50 (SK-MEL-28)	GI50 (RPMI-8226)	GI50 (HCC 2998)
CC(C)c1ccccc1[S+]([O-])c1ccccc1C(C)(C)O (stereo not drawn)	> 100 µM (inactive)	82.6 µM (inactive)	> 100 µM (inactive)	32.3 µM (inactive)	> 100 µM (inactive)	> 100 µM (inactive)	> 100 µM (inactive)	56.2 µM (inactive)	> 100 µM (inactive)	50.4 µM (inactive)	88.9 µM (inactive)	20 µM (inactive)	> 100 µM (inactive)	82	96.8 µM (inactive)	21.1 µM (inactive)	> 100 µM (inactive)	> 100 µM (inactive)	42.6 µM (inactive)	
c1ccc(NN(Cc2cnccn2)c2ccccc2)cc1	> 100 µM (inactive)	67.5 µM (inactive)	63 µM (inactive)	> 100 µM (inactive)	19.1 µM (inactive)	> 100 µM (inactive)	> 100 µM (inactive)	> 100 µM (inactive)	66.7 µM (inactive)	> 100 µM (inactive)	76.9 µM (inactive)	28.8 µM (inactive)	63.8 µM (inactive)	79.8	44 µM (inactive)	73.8 µM (inactive)	51.6 µM (inactive)	> 100 µM (inactive)	55.7 µM (inactive)	
COc1ccc(/N=C/N(C)C)c(C)c1	9.57 µM (inactive)	0.13 µM (active)	9.42 µM (inactive)	16.7 µM (inactive)	10.5 µM (inactive)	35.6 µM (inactive)	4.16 µM (inactive)	20.5 µM (inactive)	7.13 µM (inactive)	1.52 µM (inactive)	5.83 µM (inactive)	18.1 µM (inactive)	14.2 µM (inactive)	35.3	2.43 µM (inactive)	11 µM (inactive)	2.42 µM (inactive)	12.6 µM (inactive)	> 100 µM (inactive)	
CCCCc1ccc(C#CC#Cc2ccc(CCCC)s2)s1		24.8 µM (inactive)	> 100 µM (inactive)	> 100 µM (inactive)	> 100 µM (inactive)	> 100 µM (inactive)	> 100 µM (inactive)	> 100 µM (inactive)	> 100 µM (inactive)	> 100 µM (inactive)	> 100 µM (inactive)	> 100 µM (inactive)	> 100 µM (inactive)	> 100	> 100 µM (inactive)	> 100 µM (inactive)	> 100 µM (inactive)		> 100 µM (inactive)	> 100 µM (inactive)
Clc1ccc(/C=C/c2nc(Cl)c(-c3ccc(Cl)cc3)c(Cl)n2)cc1	> 100 µM (inactive)	14.3 µM (inactive)	71.6 µM (inactive)	19.3 µM (inactive)	> 100 µM (inactive)	74.8 µM (inactive)	76.4 µM (inactive)	> 100 µM (inactive)	> 100 µM (inactive)	> 100 µM (inactive)	67 µM (inactive)	50.6 µM (inactive)	89.9 µM (inactive)	> 100	31.5 µM (inactive)	52.1 µM (inactive)	39.3 µM (inactive)	> 100 µM (inactive)	23.8 µM (inactive)	
O=C(O)CCC[C@]1(O)O[C@@]2(CCCC2=O)[C@]2(O)CCC[C@@]21O	> 100 µM (inactive)	> 100 µM (inactive)	> 100 µM (inactive)	> 100 µM (inactive)	> 100 µM (inactive)	26.5 µM (inactive)	> 100 µM (inactive)	> 100 µM (inactive)	> 100 µM (inactive)	> 100 µM (inactive)	> 100 µM (inactive)	> 100 µM (inactive)	> 100 µM (inactive)	> 100	0.106 µM (active)	4.24 µM (inactive)	> 100 µM (inactive)	> 100 µM (inactive)	> 100 µM (inactive)	
CCCCCCCCCCCCCCCCC(=O)NCC(=O)NCC(=O)NC(Cc1ccccc1)C(=O)Oc1ccc([N+](=O)[O-])cc1 (stereo not drawn)		50 µM (inactive)	> 100 µM (inactive)	45.2 µM (inactive)	32.1 µM (inactive)	17.2 µM (inactive)	> 100 µM (inactive)	27.5 µM (inactive)	19.2 µM (inactive)	> 100 µM (inactive)	23.4 µM (inactive)	> 100 µM (inactive)	19.7 µM (inactive)	19.1	26.7 µM (inactive)	23 µM (inactive)	23.9 µM (inactive)	15.8 µM (inactive)	21 µM (inactive)	17.7 µM (inactive)
COc1ccc(/N=N/C(=N/NC(=O)c2ccc(C)cc2)c2ccc(N(CCC#N)CCC#N)cc2OC)cc1	> 100 µM (inactive)	< 0.01 µM (active)	> 100 µM (inactive)		> 100 µM (inactive)	> 100 µM (inactive)	> 100 µM (inactive)	> 100 µM (inactive)	> 100 µM (inactive)	> 100 µM (inactive)	> 100 µM (inactive)	> 100 µM (inactive)	> 100 µM (inactive)	> 100	> 100 µM (inactive)	> 100 µM (inactive)	> 100 µM (inactive)	> 100 µM (inactive)		> 100 µM (inactive)
CCOC(=O)c1c(NC(=O)OC)c(C#N)c2n1CCCCC2		> 100 µM (inactive)	> 100 µM (inactive)	> 100 µM (inactive)	93.3 µM (inactive)	> 100 µM (inactive)	22.8 µM (inactive)		> 100 µM (inactive)	> 100 µM (inactive)	35.7 µM (inactive)	> 100 µM (inactive)		> 100		> 100 µM (inactive)	> 100 µM (inactive)	> 100 µM (inactive)	> 100 µM (inactive)	> 100 µM (inactive)
CC1(C)COP(=S)(c2ccccn2)O[C@@H]1c1ccccc1 (stereo partly drawn)	> 100 µM (inactive)	24.1 µM (inactive)	70 µM (inactive)	6.19 µM (inactive)	> 100 µM (inactive)	> 100 µM (inactive)	> 100 µM (inactive)	> 100 µM (inactive)	> 100 µM (inactive)	> 100 µM (inactive)	> 100 µM (inactive)	> 100 µM (inactive)	> 100 µM (inactive)	94.2	56.6 µM (inactive)	55.2 µM (inactive)	> 100 µM (inactive)	> 100 µM (inactive)		> 100 µM (inactive)
CN(N=O)C(=O)Nc1ccc(C(=O)O)cc1		> 100 µM (inactive)	> 100 µM (inactive)	> 100 µM (inactive)	> 100 µM (inactive)	> 100 µM (inactive)	> 100 µM (inactive)	> 100 µM (inactive)	> 100 µM (inactive)	> 100 µM (inactive)	> 100 µM (inactive)	> 100 µM (inactive)	> 100 µM (inactive)	> 100	> 100 µM (inactive)	> 100 µM (inactive)	> 100 µM (inactive)	> 100 µM (inactive)	> 100 µM (inactive)	> 100 µM (inactive)
CC(=O)N(C(=O)CC(=O)N/N=C\c1ccc(Br)c(N(CCC#N)CCC#N)c1)c1ccc(Cl)cc1	51.6 µM (inactive)	35.4 µM (inactive)		54.2 µM (inactive)	30.2 µM (inactive)	44.7 µM (inactive)	30.2 µM (inactive)	11.8 µM (inactive)	54.5 µM (inactive)	52.5 µM (inactive)	10.6 µM (inactive)	33.4 µM (inactive)	7 µM (inactive)	14		22.7 µM (inactive)		> 100 µM (inactive)	81.8 µM (inactive)	31 µM (inactive)
COc1ccc2c(c1)nc1n2C(c2c(F)cccc2F)SC1 (stereo not drawn)		27.9 µM (inactive)	> 100 µM (inactive)	39.3 µM (inactive)	76 µM (inactive)	> 100 µM (inactive)	> 100 µM (inactive)	> 100 µM (inactive)	83.8 µM (inactive)	35.2 µM (inactive)	> 100 µM (inactive)	> 100 µM (inactive)	> 100 µM (inactive)	35.2		32.4 µM (inactive)	45.7 µM (inactive)	> 100 µM (inactive)	30.6 µM (inactive)	55.1 µM (inactive)
O=C(CCCn1ccnc1[N+](=O)[O-])NCCn1cncc1[N+](=O)[O-]	> 100 µM (inactive)	> 100 µM (inactive)	> 100 µM (inactive)	> 100 µM (inactive)	> 100 µM (inactive)	> 100 µM (inactive)	> 100 µM (inactive)	> 100 µM (inactive)	> 100 µM (inactive)	> 100 µM (inactive)	> 100 µM (inactive)	> 100 µM (inactive)	> 100 µM (inactive)	> 100	> 100 µM (inactive)	> 100 µM (inactive)	> 100 µM (inactive)	> 100 µM (inactive)	> 100 µM (inactive)	
